Test results published in patent publication US7445892B2, “Method of testing anticancer agent-sensitivity of tumor cells” (Eisai Co., Ltd., priority 2000, dated 2008).

Key:
Format in all cases: cell-based, human
[1] = system: MDA-MB-435; test: Gene expression analysis using GeneChip in three kinds of cancers; conditions: MDA-MB-435, 8 μM for 12 hours
Method: (§1) Gene expression changes in three kinds of cancers of HCT116-C9 (human colon cancer cell strain), MDA-MB-435 (human breast cancer cell strain) and MOLT-4 (human T lymphoblastic leukemia cell strain) caused by E7070 (treated with 8 μM for 12 hours) were examined by using GeneChip in the same manner as in Example 2. A list of the genes of which expression was enhanced 1.8 times or more in common in the three kinds of cancers is shown in Table 3. Further, a list of the genes of which expression was inhibited 1.8 times or more in common in the three kinds of cancers is shown in Table 4. Since the genes of which expression varies (enhanced or reduced) in common in these strains of the three kinds of cancers established from cancer patients with totally different genetic backgrounds are very likely to be more closely associated with the E7070 antitumor action mechanism common to the tumor cells, it is considered that they can be used as valid markers when susceptibility of a tumor cell to E7070 and its related compounds is tested.

[2] = system: MOLT-4; test: as above; conditions: MOLT-4, 8 μM for 12 hours
Method: as §1

[3] = system: LX-1-E2; test: Cell growth inhibition by the MTT method; conditions: resistant strain LX-1-E2, drug concentration 8 μM, 72 hours culture
Method: (§2) The used cell strains HCT116-C9, HCT116-C9-C1, LX-1 and LX-1-E2 were cultured for 72 hours with addition of E7070. The actual operation was performed by using CellTiter 96 Non-Radioactive Cell Proliferation Assay (Promega, Madison, Wis.) according to the attached operation manual.

[4] = system: HCT116-C9; test: Cell growth inhibition by the MTT method; conditions: HCT116-C9, 72 hours culture, FIG. 1
Method: as §2

[5] = system: C9-C4; test: Gene expression analysis using GeneChip in E7070-resistant strain C9-C4; conditions: resistant strain C9-C4, 8 μM, 12 hours
Method: The fragmented cRNA was hybridized with GeneChip Hu6800 (Affymetrix) in 100 mM MES, 1 M sodium salt, 20 mM EDTA and 0.01% Tween 20 at 45° C. for 16 hours. After the hybridization, the GeneChip was washed and stained according to the protocol EukGE-WS2 attached to Affymetrix Fluidics Station. For the staining, streptavidin-phycoerythrin and biotinylated goat anti-streptavidin antibody were used. The stained GeneChip was scanned by using HP Argon Ion Laser Confocal Scanner (Hewlett Packard) to measure its fluorescence intensity. The fluorescence was measured at 570 nm by using an excitation light at 488 nm. The quantitative data analyses were all conducted by using GeneChip Software (Affymetrix). To quantify RNA, an average of “differences [(Perfect match hybridization signal)−(Mismatch signal)]” was obtained for each probe family. […] Two kinds of E7070-resistant strains (C9-C1 and another resistant strain (C9-C4) obtained in the same method as C9-C1) were treated with 8 μM of E7070 for 12 hours in the same manner as described above, and variations of the gene expression were analyzed by using GeneChip for the genes listed in Tables 1 and 2.

[6] = system: LX-1-E2; test: Gene expression analysis by quantitative PCR; conditions: resistant strain LX-1-E2, 8 μM, 0-12 hours, FIG. 5
Method: (§3) Similarly, E7070 was added to the media of an E7070-susceptible strain LX-1 and an E7070-resistant strain LX-1-E2 at a concentration of 8 μM and the cells were cultured. Cells were recovered after 0, 3, 6 and 12 hours. Total RNA was extracted from these cells and subjected to the subsequent analyses. LX-1 (Cancer Chemotherapy Center, Japan Foundation for Cancer Research, Tokyo, Japan) was a cell strain derived from human parvicellular lung cancer, and LX-1-E2 is an E7070-resistant substrain obtained by culturing this LX-1 in the presence of E7070 with gradually increasing the E7070 concentration. In order to confirm that variations in gene expression obtained in Example 2 reflected the susceptibility of a tumor cell to E7070, changes of gene expression in E7070-susceptible cells and E7070-resistant cells were examined by quantitative PCR using RNA shown in Example 1, SYBR Green and ABI Prism 7700 Sequence Detection System (Perkin-Elmer Applied Biosystems). […] The mRNA level in each specimen was quantified by measuring fluorescence intensity. In comparison of two or more specimens, quantitative values were corrected based on the mRNA level of GAPDH in each specimen. The relationships between the drug treatment time and each mRNA level are shown in FIGS. 2 to 5, where the quantified value at 0 hour after the drug treatment was used as a control (100%).

[7] = system: LX-1; test: Gene expression analysis by quantitative PCR; conditions: susceptible strain LX-1, 8 μM, 0-12 hours, FIG. 3
Method: as §3

With `NS(=O)(=O)c1ccc(S(=O)(=O)Nc2cccc3c(Cl)c[nH]c23)cc1` [E7070, N-(3-chloro-7-indolyl)-1,4-benzenedisulfonamide] the “enhancement of expression of the genes listed in Table 3” value [1] was no less than 1.8 times, the “inhibition of expression of the genes listed in Table 4” value [1] was no less than 1.8 times and the “enhancement of expression of the genes listed in Table 3” value [2] was no less than 1.8 times. The “inhibition of expression of the genes listed in Table 4” value [2] was no less than 1.8 times, the growth inhibitory effect [3] was “some growth inhibitory effect” and the “susceptibility (cell growth inhibition)” value [4] was “highest susceptibility”. The “variations of the gene expression for the genes listed in Tables 1 and 2” value [5] was “no gene that increased or decreased 1.8 times or more was observed”, the “mRNA level variation of S80343, U07919, U11791, M95809, U18291, U63743, M61764 (corrected by GAPDH)” value [6] was “U11791 showed an expression change and M95809 and U18291 showed a slight expression change” and the “mRNA level variation of S80343, U07919, U11791, M95809, U18291, U63743, M61764 (corrected by GAPDH)” value [7] was “all the genes except for S80343 showed expression variations”.
